According to patent US9890147B2 (BAYER PHARMA AKTIENGESELLSCHAFT, priority 2012, dated 2018):

Experiments:
MOLP-8 cells = assay: Cell proliferation assay (alamarBlue), MOLP-8; assay type: cell-based; conditions: Homo sapiens, 120 hours incubation, inhibition of cell proliferation
Outline: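 MOLP-8 cells in RPMI1640 with 20% FCS, 4000 cells/well, treated overnight after seeding with substance at 1E-5 to 1E-8 M for 120 h at 37° C. Viability read by alamarBlue fluorescence (ex 530, em 590); pre-treatment values subtracted, compared with buffer-only cells to derive IC50.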

MDA-MB-231 cells = assay: Cell proliferation assay (alamarBlue), MDA-MB-231; assay type: cell-based; conditions: Homo sapiens; inhibition of cell proliferation, MDA-MB-231 (breast carcinoma), 96 hours
Procedure: (§1) In accordance with the invention, the capability of the substances to inhibit cell proliferation was determined Cell viability was determined using the alamarBlue® reagent (Invitrogen) in a Victor X3 Multilabel Reader (Perkin Elmer). The excitation wavelength was 530 nm and the emission wavelenth […].
The MDA-MB-231 cells (DSMZ, ACC 732) were sown at a concentration of 4000 cells/well in 100 μl growth medium (DMEM/Ham's F12 medium, 10% FCS) on 96-well microtitre plates. The Caov-3 cells (ATCC, HTB-75) were sown at a concentration of 2000 cells/well in 100 μl growth medium (MEM Earle's medium, 10% FCS) on 96-well microtitre plates.
(§2) After an overnight incubation at 37° C., the fluorescence values (CI values) were determined. The plates were then treated with various substance dilutions (1E-5 M, 3E-6 M, 1E-6M, 3E-7 M, 1E-7 M, 3E-8 M, 1E-8 M) and incubated at 37° C. for 72 (MV4-11-, LOX-IMVI cells), 96 (MOLM-13-, B16F10-, MDA-MB-431-, Caov-3 cells), 120 (MOLP-8-, KMS-12-PE cells) or 168 (LAPC-4 cells) hours. The fluorescence values (CO values) were then determined. For the data analysis, the CI values were subtracted from the CO values and the results were compared between cells treated with different dilutions of the substance or with buffer solution only. These were used to calculate the IC 50 values (substance concentration required for 50% inhibition of cell proliferation).

LOX-IMVI cells = assay: Cell proliferation assay (alamarBlue), LOX-IMVI; assay type: cell-based; conditions: Homo sapiens, 72 hours incubation, inhibition of cell proliferation
Outline: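 Cells seeded at 1000/well in RPMI1640 with 10% FCS, incubated overnight at 37° C, then treated with dilutions from 1E-5 to 1E-8 M for 72 h. Viability read by alamarBlue fluorescence (ex 530/em 590 nm); pre-treatment values subtracted and compared with buffer-only cells to derive IC50.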

LAPC-4 cells = assay: Cell proliferation assay (alamarBlue), LAPC-4; assay type: cell-based; conditions: Homo sapiens, LAPC4; inhibition of cell proliferation, LAPC-4 (prostate cancer), 1 nM methyltrienolone, 168 hours
Procedure: as §1
The LAPC-4 cells (ATCC, PTA-1441TM) were sown at a concentration of 4000 cells/well in 100 μl growth medium (RPMI1640, 2 mM L-glutamine, 10% cFCS) on 96-well microtitre plates. A day later, the LAPC-4 cells were treated with 1 nM methyltrienolone and various substance dilutions.
as §2

Caov-3 cells = assay: Cell proliferation assay (alamarBlue), Caov-3; assay type: cell-based; conditions: Homo sapiens; inhibition of cell proliferation, Caov-3 (ovarian carcinoma), 96 hours
Outline: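 Caov-3 (MEM Earle's, 10% FCS, 2000 cells/well) and MDA-MB-231 (DMEM/Ham's F12, 10% FCS, 4000 cells/well) were treated after overnight attachment with 1E-5 to 1E-8 M compound. Caov-3 exposure was 96 h. alamarBlue fluorescence (ex 530, em 590 nm) was read after background subtraction of day-0 values, and IC50 calculated versus buffer-treated cells.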

BRD4 (BD1) = target: T1, BRD4 (BD1) (Homo sapiens, UniProt O60885); assay: Binding assay BRD4/acetylated peptide H4 (TR-FRET protein-protein interaction assay)
T1 construct: with relatively long constructs also being possible, preferably amino acids 44-168; made in house; host or cells: E. coli
Outline: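 His6-BRD4 BD1 (aa 67-152, E. coli), usually 10 nM, with biotinylated tetra-acetylated H4 peptide in HEPES pH 7.5 buffer; 11 compound concentrations 0.1 nM–20 μM in duplicate, 10 min preincubation, 1 h at 22 °C then ≥3 h at 4 °C. TR-FRET 665/620 ratio; IC50 by 4-parameter fit.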

KMS-12-PE cells = assay: Cell proliferation assay (alamarBlue), KMS-12-PE; assay type: cell-based; conditions: Homo sapiens, 120 hours incubation, inhibition of cell proliferation
Outline: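 KMS-12-PE myeloma cells in RPMI1640 with 20% FCS were exposed to compound (1E-5 to 1E-8 M) for 120 h at 37° C. AlamarBlue fluorescence (ex 530, em 590 nm) read before and after treatment; the difference versus buffer-treated cells gave IC50.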

B16F10 cells = assay: Cell proliferation assay (alamarBlue), B16F10; assay type: cell-based; conditions: Mus musculus, B16-F10, 96 hours incubation, inhibition of cell proliferation
Outline: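 alamarBlue fluorescence (ex 530/em 590 nm) read after overnight seeding at 300-500 cells/well in DMEM + 10% FCS, then after 96 h at 37 °C with compound at 1E-8 to 1E-5 M. Baseline subtracted from endpoint, compared with buffer-treated cells; IC50 = concentration giving 50% proliferation inhibition.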

MV4-11 cells = assay: Cell proliferation assay (alamarBlue), MV4-11; assay type: cell-based; conditions: Homo sapiens, 72 hours incubation, inhibition of cell proliferation
Outline: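 Cells seeded at 5000/well in RPMI1640 + 10% FCS, incubated overnight at 37° C, then treated with compound (1E-5 to 1E-8 M) for 72 h at 37° C. Viability by alamarBlue fluorescence (ex 530/em 590 nm); pre-treatment readings subtracted, IC50 derived versus buffer-treated cells.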

MOLM-13 cells = assay: Cell proliferation assay (alamarBlue), MOLM-13; assay type: cell-based; conditions: Homo sapiens, 96 hours incubation, inhibition of cell proliferation
Outline: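 Cells in RPMI1640/10% FCS read by alamarBlue fluorescence (ex 530, em 590 nm) after overnight 37 °C incubation, then treated at 1E-5 to 1E-8 M for 96 h. Pre-treatment values subtracted from endpoint values and compared with buffer-only wells; IC50 is 50% proliferation inhibition.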

SMILES	IC50 (MOLP-8 cells) [µM]	IC50 (MDA-MB-231 cells) [µM]	IC50 (LOX-IMVI cells) [µM]	IC50 (LAPC-4 cells) [µM]	IC50 (Caov-3 cells) [µM]	IC50 (BRD4 (BD1)) [µM]	IC50 (KMS-12-PE cells) [µM]	IC50 (B16F10 cells) [µM]	IC50 (MV4-11 cells) [µM]	IC50 (MOLM-13 cells) [µM]
CNC(=O)N1N=C(c2ccc(-c3c(C)noc3C)cc2)c2cc(OC)c(OC)cc2CC1C (racemic) [Example 2, (±)-1-[4-(3,5-Dimethyl-4-isoxazolyl)phenyl]-7,8-dimethoxy-N,4-dimethyl-4,5-dihydro-3H-2,3-benzodiazepine-3-carboxamide]	0.12	0.31	0.43	0.24	0.31	0.08	0.09	0.18	0.11	0.17
CNC(=O)N1N=C(c2ccc(-c3cc[nH]n3)cc2)c2cc(OC)c(OC)cc2CC1C (racemic) [Example 3, (±)-7,8-Dimethoxy-N,4-dimethyl-1-[4-(1H-pyrazol-3-yl)phenyl]-4,5-dihydro-3H-2,3-benzodiazepine-3-carboxamide]	0.28	0.21	0.95	0.11	0.55	0.05	0.23	0.11	0.26	0.24
CNC(=O)N1N=C(c2ccc(-c3cccnc3Cl)cc2)c2cc(OC)c(OC)cc2CC1C (racemic) [Example 4, (±)-1-[4-(2-chloropyridin-3-yl)phenyl]-7,8-dimethoxy-N,4-dimethyl-4,5-dihydro-3H-2,3-benzodiazepine-3-carboxamide]	0.17	0.17	0.45	0.09	0.32	0.08	0.11	0.11	0.12	0.19
CNC(=O)N1N=C(c2ccc(N3CCOCC3)cc2)c2cc(OC)c(OC)cc2CC1C (racemic) [Example 7, (±)-7,8-Dimethoxy-N,4-dimethyl-1-[4-(morpholin-4-yl)phenyl]-4,5-dihydro-3H-2,3-benzodiazepine-3-carboxamide]	0.12	0.25	0.57	0.09	0.4	0.03	0.09	0.14	0.17	0.2
CNC(=O)N1N=C(c2ccc(-c3c(C)noc3C)cc2)c2cc(OC)c(OC)cc2C[C@@H]1C [Example 2.2, (4S)-1-[4-(3,5-Dimethyl-4-isoxazolyl)phenyl]-7,8-dimethoxy-N,4-dimethyl-4,5-dihydro-3H-2,3-benzodiazepine-3-carboxamide]	0.12	0.2	0.33	0.09	0.25	0.06	0.11	0.11	0.1	0.13
CNC(=O)N1N=C(c2ccc(-c3c(C)nn(C)c3C)cc2)c2cc(OC)ccc2C[C@@H]1C [Example 22, (4S)-8-methoxy-N,4-dimethyl-1-[4-(1,3,5-trimethyl-1H-pyrazol-4-yl)phenyl]-4,5-dihydro-3H-2,3-benzodiazepine-3-carboxamide]	0.09	0.15	0.24	0.06	0.11	0.03	0.11	0.1	0.88	0.08
CNC(=O)N1N=C(c2ccc(N3CCOCC3=O)cc2)c2cc(OC)c(OC)cc2C[C@@H]1C [Example 40.1, (4S)-7,8-dimethoxy-N,4-dimethyl-1-[4-(3-oxomorpholin-4-yl)phenyl]-4,5-dihydro-3H-2,3-benzodiazepine-3-carboxamide]	0.59	1.28	0.33	0.29	–	0.12	0.08	0.79	0.76	0.96
